Test results: patent US20250177340A1, “Tartaric Acid Analogs and Uses Thereof” (Lapix Therapeutics, Inc., priority 2021, published 2025)

Assays:
[1] = test system: PD-1; assay: Percent PD-1+/CD8+ T-cells in splenocytes after a single dose, melanoma murine model; type: in vivo, mice
Experimental: (§1) The pharmacodynamic (PD) effects of a single IV dose of Compound B in a melanoma murine model were evaluated. B16F10 melanoma cells were grown in RPMI 1640 media supplemented with 10% FBS and antibiotics (penicillin/streptomycin) using T75 flasks. When cells reached 70-80% confluency, they were treated with 3 ml of 0.25% Trypsin/EDTA. Afterward, detached cells were harvested. A single-cell suspension was prepared in PBS. An IV injection of 10^5 cells in mice marked day −3 of the experiment.
(§2) Animals were housed four per cage, and had access to food and water ad libitum. Compound B was dissolved in sterile PBS, and pH was adjusted to approximately 7.5. Sterile PBS served as control.
(§3) Three days after the IV injection of melanoma cells, animals in the baseline group (n=3) were sacrificed and their spleens were collected for KLRG-1, CTLA-4, and PD-1 analysis. At each predetermined time-point (24, 48, and 120 hours after dosing) three animals from each group were sacrificed for splenocyte analysis of KLRG-1, CTLA-4, and PD-1 expression levels, and expression levels were compared to baseline.
(§4) Spleens collected for splenocyte analysis were prepared into a single-cell suspension for cellular phenotyping by flow cytometry. Cells were stained and gated for CD8. Percent KLRG-1+, CTLA-4+, and PD-1+ CD8+ T-cells were evaluated using flow cytometry.
(§5) The PD effects of a single IV dose of Compound C were evaluated in a melanoma murine model conducted as described in Example 10. […] This study also evaluated whether Compound C was pharmacodynamically active orally.
(§6) In a prior study, Compound C was dosed at 1 mg IV QD for seven days. […] A single PO dose was chosen to confirm oral activity of Compound C. Compound C was dissolved in DMSO, and then diluted in sterile PBS. pH was adjusted to approximately 7.5.
(§7) The oral and intravenous PD effects of a single dose of Compound E were evaluated in a melanoma murine model conducted as described in Example 10.
(§8) Compound E was dissolved in DMSO, and then diluted in sterile PBS. pH was adjusted to approximately 7.5.

[2] = test system: KLRG1; assay: Percent KLRG1+ T-cells in spleens, single dose on Day 7 (Examples 17, 19, 20); type: in vivo, C57BL6 mice
Experimental: (§9) Melanoma B16F10 cells were injected IV into C57BL6 mice on Day 0. On Day 7, mice were administered a single dose of 0.1 mg, 0.25 mg, or 1 mg of Compound E IV or 2.5 mg Compound E PO. One group was left untreated. Three mice at each time point were sacrificed, and their spleens were extracted. Percent KLRG1+ and PD-1^+ T-cells were quantified. Briefly, single-cell suspensions prepared from the extracted spleens were prepared and stained for KLRG1, PD-1 and CD8, and analyzed by flow cytometry.
as §9, with “of 0.03 mg,” for “of”, “0.3 mg” for “0.25 mg,”, “mg” for “mg of”, “F” for “E”, “1” for “2.5”
as §9, with “0.4” for “0.25”, “mg” for “mg of”, “G” for “E”, “1” for “2.5”

[3] = test system: PD-1; assay: Percent PD-1+ T-cells in spleens, single dose on Day 7 (Examples 17, 19, 20); type: in vivo, C57BL6 mice; details: E 0.1, 0.25, 1 mg IV or 2.5 mg PO, F 0.03-1 mg IV or 1 mg PO, G 0.1, 0.4, 1 mg IV or 1 mg PO
Experimental: as §9
as §9, with “of 0.03 mg,” for “of”, “0.3 mg” for “0.25 mg,”, “mg” for “mg of”, “F” for “E”, “1” for “2.5”
as §9, with “0.4” for “0.25”, “mg” for “mg of”, “G” for “E”, “1” for “2.5”

[4] = Oral bioavailability; type: in vivo; details: mouse, in vivo; suggested from 2.5 mg oral dose as efficacious as 0.25 mg IV; not evaluated in a PK study
[5] = test system: KLRG-1; assay: Percent KLRG-1+/CD8+ T-cells in splenocytes after a single dose, melanoma murine model; type: in vivo, mice
Experimental: as §1, §2, §3, §4, §5, §6, §7, §8

[6] = test system: Granzyme B and IFN-γ; assay: Dose-response of GranzymeB/IFN-γ double positivity in murine CD8+ T-cells, Example 9; type: cell-based, C57BL/6 mice; details: Mus musculus, T-cell
Experimental: A dose-response analysis of compounds B-E in murine CD8+ T-cells was conducted to evaluate the effect of dose on GranzymeB/IFN-γ double positivity.
Compound C, D and E were first dissolved in a small volume of DMSO before diluting to the final desired concentration.
Splenocytes from naïve C57BL/6 mice were stained with CFSE, prepared, cultured, and dosed. Cells were seeded at 2×10^5 cells/well. Negative control was dosed with 10 ng/ml IL-2. After ConA stimulation (10 μg/ml), cells were dosed with log 3 dilution of each compound from 3×10^−9 to 30 µM in triplicates. All wells were dosed with 10 ng/ml of IL-2.
Flow cytometer analysis was performed to assess percent CD8+ T-cells and percent activation by double staining for Granzyme B (GzmB) and IFN-γ as described in Example 7. Concentration versus response curve was fitted to a 4- or 5-parameter log-logistic model using the “dre” package in “R”. Both EC50 and EC90 were obtained by model fitting.

[7] = test system: B16 F10 melanoma cells; assay: Tumor growth inhibition using Compound E (Example 18); type: in vivo, C57BL/6 mice; details: 0.3 or 3 mg orally daily for seven days
Experimental: C57BL/6 mice received 10^5 B16 F10 melanoma cells via SC injection on day 0. At day 7, mice were treated orally with Compound E at 0.3 or 3 mg daily for seven days. Tumor growth inhibition was monitored until all untreated animals reached end point, defined as death by disease (found dead in the cage) or tumor size of 1,000 mm^3 or greater.

[8] = 0.1 mg/mouse IV single dose, 24 h
[9] = 0.1 mg/mouse IV single dose, 48 h
[10] = 0.1 mg/mouse IV single dose, 120 h
[11] = 0.25 mg/mouse IV single dose, 24 h
[12] = 0.25 mg/mouse IV single dose, 48 h
[13] = 0.25 mg/mouse IV single dose, 120 h
[14] = 1 mg/mouse IV single dose, 24 h
[15] = 1 mg/mouse IV single dose, 48 h
[16] = 1 mg/mouse IV single dose, 120 h
[17] = 2.5 mg/mouse po single dose, 24 h
[18] = 2.5 mg/mouse po single dose, 48 h
[19] = 2.5 mg/mouse po single dose, 120 h

bioavailability [4]: ≥ 10%
EC50 ([6]; 4-parameter model): 93 nM
EC90 ([6]; 4-parameter model): 120000 nM
EC50 ([6]; 5-parameter model): 23 nM
EC90 ([6]; 5-parameter model): 600 nM
Compound: O=C(O)[C@H](O)[C@@H](O)C(=O)NCCC(c1ccccc1)c1ccccc1 [Compound E, (2R,3R)-4-((3,3-diphenylpropyl)amino)-2,3-dihydroxy-4-oxobutanoic acid]
PD-1+/CD8+ T-cells, mean [1, 8]: 35%
PD-1+/CD8+ T-cells, mean [1, 9]: 26%
PD-1+/CD8+ T-cells, mean [1, 10]: 37%
PD-1+/CD8+ T-cells, mean [1, 11]: 23%
PD-1+/CD8+ T-cells, mean [1, 12]: 26%
PD-1+/CD8+ T-cells, mean [1, 13]: 32%
PD-1+/CD8+ T-cells, mean [1, 14]: 23%
PD-1+/CD8+ T-cells, mean [1, 15]: 30%
PD-1+/CD8+ T-cells, mean [1, 16]: 29%
PD-1+/CD8+ T-cells, mean [1, 17]: 25%
PD-1+/CD8+ T-cells, mean [1, 18]: 32%
PD-1+/CD8+ T-cells, mean [1, 19]: 30%
decrease from baseline in PD-1+/CD8+ T-cell ([1]; single dose, 0.25 mg or higher, 24 hours): approximately 39%
activity after oral administration (KLRG1+, PD1+ T-cells) ([2]; single PO dose: E 2.5 mg, F 1 mg, G 1 mg): effective after oral administration
percent KLRG1+ T-cells compared to untreated animals ([2]; single dose, E 0.1, 0.25, 1 mg IV or 2.5 mg PO, F 0.03-1 mg IV or 1 mg PO, G 0.1, 0.4, 1 mg IV or 1 mg PO): reduction
percent PD1+ T-cells compared to untreated animals [3]: reduction
KLRG-1+/CD8+ T-cells, mean [5, 8]: 0.7%
KLRG-1+/CD8+ T-cells, mean [5, 9]: 1.2%
KLRG-1+/CD8+ T-cells, mean [5, 10]: 1.0%
KLRG-1+/CD8+ T-cells, mean [5, 11]: 0.6%
KLRG-1+/CD8+ T-cells, mean [5, 12]: 0.9%
KLRG-1+/CD8+ T-cells, mean [5, 13]: 0.6%
KLRG-1+/CD8+ T-cells, mean [5, 14]: 1.3%
KLRG-1+/CD8+ T-cells, mean [5, 15]: 0.6%
KLRG-1+/CD8+ T-cells, mean [5, 16]: 1.2%
oral pharmacodynamic activity ([5]; 2.5 mg PO single dose): effective after oral administration
KLRG-1+/CD8+ T-cells, mean [5, 17]: 0.6%
KLRG-1+/CD8+ T-cells, mean [5, 18]: 1.9%
KLRG-1+/CD8+ T-cells, mean [5, 19]: 1.2%
time of nadir of exhaustion markers after dosing ([5]; single dose, KLRG-1, CTLA-4, PD-1): 24 h
Emax ([6]; FIG. 4, 5-parameter fit, read-out: maximal response (GzmB/IFN-γ double positive CD8+ T-cells)): ~60%
tumor growth [7]: dose-dependent inhibition of tumor growth
